Experimental data reported in EPA's ToxValDB 9.5 (doi:10.2903/j.efsa.2015.4302).

Legend:
Colinus virginianus = settings: for LC50 / LD50: acute, oral, mortality; for LC50: diet
Apis mellifera = settings: acute, mortality
Daphnia magna = settings: chronic/long-term; duration: 21 days; reproduction
Skeletonema costatum = settings: acute; duration: 72 hours; growth
Anas platyrhynchos = settings: reproductive
Tagia sp. = settings: acute; duration: 14 days; mortality
Anabaena flosaquae = settings: acute; duration: 72 hours
Oncorhynchus mykiss = settings: chronic/long-term; duration: 85 days; growth
Pimephales promelas = settings: chronic/long-term; duration: 255 days; growth
Danio rerio = settings: short-term; duration: 168 hours; growth
Oryctolagus sp. = settings: repeat dose other; mortality

Row | SMILES | LC50 (Colinus virginianus) | LD50 (Colinus virginianus) | LD50 (Apis mellifera; dermal) | LD50 (Apis mellifera; oral, unspecified) | NOEL (Colinus virginianus; reproduction developmental) | NOEC (Daphnia magna) | NOEC (Skeletonema costatum) | NOEL (Anas platyrhynchos) | LC50 (Tagia sp.) | LD50 (Rattus norvegicus; acute, mortality) | NOAEL (Rattus norvegicus; chronic) | NOEC (Anabaena flosaquae) | NOEC (Oncorhynchus mykiss) | NOEC (Pimephales promelas) | NOEC (Danio rerio) | NOAEL (Oryctolagus sp.)
1 | NCP(=O)(O)O [Aminomethylphosphonic acid] | > 5620 mg/kg-day | > 2250 mg/kg-day |  |  |  |  |  |  |  |  |  |  |  |  |  | 
2 | O=C(O)CNCP(=O)(O)O [Glyphosate] | > 5200 mg/kg-day | 4330 mg/kg-day | > 100 µg/piece | 100 µg/piece | 96.3 mg/kg-day | 12.5 mg/L | 1.82 mg/L | 125 mg/kg-day | 5600 mg/kg | > 2000 mg/kg-day | 197 mg/kg-day | 12 mg/L | 9.6 mg/L | 25.7 mg/L | 1 mg/L | 50 mg/kg-day
